Assays:
NSCLC = details: phase III, first-line, in combination with standard chemotherapy; cited from earlier work
pancreatic cancer = details: phase III, first-line, in combination with gemcitabine; cited from earlier work
[1] = test system: advanced, treatment-refractory NSCLC; details: phase III, monotherapy, patients with advanced; cited from earlier work
NSCLC cell lines = assay: Erlotinib sensitivity (IC50, Celltiter-Glo cell viability) of NSCLC cell lines versus ERBB2 methylation; assay type: cell-based; details: in vitro, 72 hrs, 3 nM TGFα, IC50 values only in FIG. 5
Method: After 72 hrs, cell viability was measured using the Celltiter-Glo Luminescent Cell Viability Assay (Promega).

SMILES	survival (NSCLC)	survival (pancreatic cancer)	disease progression [1]	survival [1]	worsening of lung cancer-related symptoms [1]	correlation of ERBB2 hypomethylation with erlotinib sensitivity (NSCLC cell lines)
COc1cc2ncnc(Nc3ccc(F)c(Cl)c3)c2cc1OCCCN1CCOCC1 [gefitinib]	did not improve survival					
C#Cc1cccc(Nc2ncnc3cc(OCCOC)c(OCCOC)cc23)c1 [erlotinib, [6,7-bis(2-methoxyethoxy)-4-quinazolin-4-yl]-(3-ethynylphenyl) amine]	did not improve survival	did improve survival	delayed disease progression	significantly prolonged survival	delayed worsening of lung cancer-related symptoms	strongly correlated
